Results as given in article PMC7897442, “Mobility shift-based electrophoresis coupled with fluorescent detection enables real-time enzyme analysis of carbohydrate sulfatase activity” (Biochemical Journal, 2021).

What was measured:
[1] = Stability of labelled substrate in CE assay without enzyme; type: physicochemical; settings: absence of enzyme, CE assay conditions
Description: 6S-N-acetyl-D-glucosamine was labelled at its reducing end with BODIPY which has a maximal emission absorbance of ∼503 nm, which can be detected by the EZ Reader II platform via LED-induced fluorescence. Non-radioactive microfluidic mobility shift carbohydrate sulfation assays were optimised in solution with a 12-sipper chip coated with CR8 reagent and performed using a PerkinElmer EZ Reader II system employing EDTA-based separation buffer and real-time kinetic evaluation of substrate desulfation. Pressure and voltage settings were adjusted manually (1.8 psi, upstream voltage: 2250 V, downstream voltage: 500 V) to afford optimal separation in the reaction mixture of the sulfated substrate and unsulfated glycan product, with a sample (sip) time of 0.2 s, and total assay times appropriate for the experiment. Individual de-sulfation assays were carried out at 28°C and were pre-assembled in a 384-well plate in a volume of 80 μl in the presence of substrate concentrations between 0.5 and 20 μM with 100 mM Bis-Tris-Propane (BTP) or Tris, dependent on the pH required, and 150 mM NaCl, 0.02% (v/v) Brij-35 and 5 mM CaCl2. The amount of de-sulfation was directly calculated in real-time using EZ Reader II software by measuring the sulfated carbohydrate : unsulfated carbohydrate ratio at each time point during the assay. […]

[2] = design: method as in PMID 36876452; settings: pH range; cited from earlier work

Row | amount of unsulfated substrate over the course of the reaction (stability) [1] | SMILES | stability over a variety of pH values [2]
1 | remained constant | CC(=O)N[C@@H]1[C@@H](O)[C@H](O)[C@@H](COS(=O)(=O)O)O[C@H]1NNC(=O)CCC1=[N+]2C(=Cc3c(C)cc(C)n3[B-]2(F)F)C=C1 [6S-GlcNAc-BODIPY] | –
2 | – | Cc1cc(C)n2c1C=C1C=CC(CCC(=O)NN)=[N+]1[B-]2(F)F [BODIPY-FL hydrazide, 4,4-difluoro-5,7-dimethyl-4-bora-3a,4a-diaza-s-indacene-3-propionic acid, hydrazide] | 3–12
